In publication PMC4336642 (Journal of neuroimmune pharmacology : the official journal …, 2015):
Values after ≈ are worked out from the molar mass of the structure shown.

Experiments:
A172 cells = test: MTT cytotoxicity assay, astrocytes model; type: cell-based; details: Homo sapiens, A 172, 24 h, read-out: IC50, Astrocytes
BV-2 cells = test: MTT cytotoxicity assay, microglia model; type: cell-based, murine; details: Mus musculus, BV-2, 24 h, read-out: IC50, Microglia
bEnd.3 cells = test: MTT cytotoxicity assay, BBB model; type: cell-based, murine; details: Mus musculus, BEND3, 24 h, read-out: IC50, BBB
SH-SY5Y cells = test: MTT cytotoxicity assay, neurons model; type: cell-based; details: Homo sapiens, 24 h, read-out: IC50, Neurons

SMILES: Cc1cn([C@H]2C[C@H](N=[N+]=[N-])[C@@H](CO)O2)c(=O)[nH]c1=O [Z, 3’-azido-3’-deoxythymidine]
- reduction in the mtDNA/nuDNA ratio / mitochondrial toxicity (HepG2 cells): two-fold reduction
- IC50 (A172 cells): > 1000 µg/mL
- IC50 (BV-2 cells): 800 µg/mL (≈ 2.99 mM)
- IC50 (bEnd.3 cells): > 1000 µg/mL
- IC50 (SH-SY5Y cells): > 1000 µg/mL
